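Where inhibition never reached the appropriate level, the endpoint shown equals the highest concentration tested. Otherwise, values were interpolated linearly from a five-concentration, 48-hour dose response in 96-well plates. GI50: concentration for 50% inhibition of growth. At the TGI there is no net growth.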
How the values were obtained:
Assay in all cases: growth of human tumour cells (NCI), 48 h
[1] = test system: 786-0 renal
[2] = test system: MALME-3M melanoma
[3] = test system: UACC-62 melanoma
[4] = test system: SN12C renal
[5] = test system: SF-295 CNS
[6] = test system: COLO 205 colon
[7] = test system: HL-60(TB) leukemia
[8] = test system: RXF 393 renal
[9] = test system: LOX IMVI melanoma
[10] = test system: MDA-MB-435

| SMILES | TGI [1] [µM] | TGI [2] [µM] | TGI [3] [µM] | TGI [4] [µM] | TGI [5] [µM] | TGI [6] [µM] | TGI [7] [µM] | GI50 [8] [µM] | TGI [8] [µM] | GI50 [1] [µM] | GI50 [9] [µM] | TGI [9] [µM] | GI50 [10] [µM] | TGI [10] [µM] | GI50 [5] [µM] | GI50 [6] [µM] | GI50 [7] [µM] | GI50 [2] [µM] | GI50 [3] [µM] | GI50 [4] [µM] |
| --- | --- | --- | --- | --- | --- | --- | --- | --- | --- | --- | --- | --- | --- | --- | --- | --- | --- | --- | --- | --- |
| Cc1nc2c(=O)n(C)c(=O)nc-2n(-c2ccc(Cl)cc2)c1C | > 100 | > 100 | > 100 | > 100 | > 100 | > 100 | > 100 | – | – | – | – | – | – | – | – | – | – | – | – | – |
| CNCc1ccc(C)c(NC(=O)c2ccc(Nc3nc(-c4ccccc4)c4ccccc4n3)cc2)c1 | 3.3 | – | – | – | 3.56 | 3.57 | 4.33 | 1.51 | 2.95 | 1.76 | 1.67 | 3.13 | 1.6 | 3.22 | 1.84 | 1.84 | 1.92 | – | – | – |
| Cn1c([N+](=O)[O-])cnc1/C=C1\Oc2ccc(Cl)cc2C1=O | 3.39 | 4.78 | 3.27 | 3.46 | 5.65 | 3.15 | 4.67 | – | – | 0.942 | 0.25 | 0.825 | 0.354 | 1.95 | 1.72 | 0.8 | 0.511 | 1.42 | 1.24 | 0.738 |
| Nc1cc2[nH]c(=O)c3cc(Cl)ccc3c2cc1Cl | > 100 | 44.6 | > 100 | > 100 | 44.2 | > 100 | > 100 | – | – | – | – | 53.6 | – | 52.1 | – | – | – | – | – | – |
| O=C1[C@@H]2C3C=CC([C@H]4C(=O)N(CO)C(=O)[C@@H]34)[C@@H]2C(=O)N1CO | > 63.6 | > 100 | > 100 | > 100 | > 100 | > 77.8 | 49.3 | – | > 77.8 | – | – | > 61 | – | – | – | – | – | – | – | – |
| CC(C)(O)C1CC(=O)C(C)(C2C(O)CC3(C)C4CC=C5C(CCC(O)C5(C)C)C4(C)C(=O)CC23C)O1 (stereo not given) | > 100 | – | > 100 | > 100 | > 100 | > 100 | – | – | > 100 | – | – | > 100 | – | > 100 | – | – | – | – | – | – |
| Cc1ccc(S(=O)(=O)NC2(C=O)CCC(C(C)(C)C)CC2)cc1 (stereo not given) | > 100 | > 100 | > 100 | 68.7 | 94.9 | 73.3 | 42.9 | – | > 100 | – | – | – | – | – | – | – | – | – | – | – |
| Cc1cccc(NC(=O)c2sc3nc4c(cc3c2N)CCC4)c1C | 14.3 | – | 21 | > 100 | 11.1 | 1.97 | 0.864 | 0.18 | 0.669 | 0.367 | 0.643 | > 100 | 0.0519 | 0.284 | 0.245 | 0.361 | 0.239 | – | 0.267 | 0.888 |
| CCCCCC1C2C(=O)NC(=O)C1C(=O)NC2=O (stereo not given) | > 100 | > 100 | > 100 | > 100 | > 100 | > 100 | > 100 | – | > 100 | – | – | > 100 | – | – | – | – | – | – | – | – |

— PubChem BioAssay (NCI)
